Source: publication PMC2551328 (Biochemistry, 2008)
Values joined by “and” are separate entries in the source; they are usually repeats but may differ in a detail not shown here. Equal entries are not always repeated. Where two headings read alike, the source gives them in different places.

How the values were obtained:
M.tb PGDH (Native) [1] = target: T1, M.tb PGDH (Native) (Mycobacterium tuberculosis, UniProt P9WNX3); assay type: biochemical
T1 sequence (P9WNX3 1-528): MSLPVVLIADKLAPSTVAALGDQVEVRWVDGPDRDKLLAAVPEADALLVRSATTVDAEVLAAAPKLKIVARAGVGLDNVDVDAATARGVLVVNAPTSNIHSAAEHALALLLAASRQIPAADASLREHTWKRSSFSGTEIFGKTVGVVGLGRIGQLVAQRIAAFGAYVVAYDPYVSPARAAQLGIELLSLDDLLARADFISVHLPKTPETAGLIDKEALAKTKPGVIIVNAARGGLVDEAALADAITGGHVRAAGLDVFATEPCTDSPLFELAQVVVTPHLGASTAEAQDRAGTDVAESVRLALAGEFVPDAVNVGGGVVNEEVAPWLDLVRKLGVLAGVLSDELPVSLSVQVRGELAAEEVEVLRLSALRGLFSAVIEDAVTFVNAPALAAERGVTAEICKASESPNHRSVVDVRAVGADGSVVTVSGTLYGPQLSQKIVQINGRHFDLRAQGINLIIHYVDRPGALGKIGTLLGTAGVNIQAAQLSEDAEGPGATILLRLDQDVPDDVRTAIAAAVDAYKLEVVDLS

M.tb PGDH = target: T2, M.tb PGDH (Mycobacterium tuberculosis, UniProt P9WNX3); assay type: binding
T2 sequence (P9WNX3 1-528): T1 sequence (P9WNX3 1-528)

Human PGDH = Human PGDH (Homo sapiens, UniProt O43175); experiment: Serine effect on human PGDH; assay type: biochemical; details: unpublished result
Sequence of Human PGDH (O43175 whole entry): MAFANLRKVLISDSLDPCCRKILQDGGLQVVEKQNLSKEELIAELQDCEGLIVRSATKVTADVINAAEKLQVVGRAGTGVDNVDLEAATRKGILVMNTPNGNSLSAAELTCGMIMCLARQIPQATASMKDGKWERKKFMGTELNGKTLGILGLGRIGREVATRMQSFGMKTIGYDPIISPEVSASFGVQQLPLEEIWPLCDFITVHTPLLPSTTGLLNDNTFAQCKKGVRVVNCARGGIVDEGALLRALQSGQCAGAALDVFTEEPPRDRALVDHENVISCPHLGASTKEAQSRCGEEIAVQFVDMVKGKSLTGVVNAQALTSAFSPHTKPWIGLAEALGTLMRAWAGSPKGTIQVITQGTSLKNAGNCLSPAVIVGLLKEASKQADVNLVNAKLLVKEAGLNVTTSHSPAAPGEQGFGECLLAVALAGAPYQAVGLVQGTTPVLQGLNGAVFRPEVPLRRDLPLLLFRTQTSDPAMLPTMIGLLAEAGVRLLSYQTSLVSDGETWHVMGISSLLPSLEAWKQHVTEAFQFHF

PGDH from B. subtilis = details: read-out: IC50 (serine); cited from earlier work
PGDH from C. glutamicum = details: read-out: IC50 (serine); cited from earlier work
chicken liver PGDH = details: cited from earlier work
rat liver PGDH = details: cited from earlier work
E. coli PGDH [2] = details: read-out: IC50 for L-serine; cited from earlier work
M.tb PGDH (Native) [3] = target: T1, M.tb PGDH (Native); details: read-out: Km (NADH), homotropic positive cooperativity; cited from earlier work
E. coli PGDH [4] = details: read-out: Kd (NADH), without cooperativity; cited from earlier work

SMILES: O=C(O)C(=O)COP(=O)(O)O [HPAP, hydroxypyruvic acid phosphate]
- Ki (M.tb PGDH (Native) [1]): 950 ± 120 µM
- kcat (M.tb PGDH (Native) [1]): 2461 ± 281 s⁻¹
- Km (M.tb PGDH (Native) [1]; pH 7.5): 170 ± 50 µM
- HPAP binding transient (enzyme fluorescence increase) (M.tb PGDH): rapid binding

SMILES: N[C@@H](CO)C(=O)O [L-serine, reference compound]
- effect of serine on enzyme activity (Human PGDH): not inhibited
- effect of serine on enzyme activity (Human PGDH; listed as serine): not affected
- IC50 (PGDH from B. subtilis): ~600 µM
- IC50 (PGDH from C. glutamicum): ~10000 µM
- effect of serine on enzyme activity (chicken liver PGDH): no effect
- effect of serine on enzyme activity (rat liver PGDH): no effect

SMILES: NC(=O)C1=CN([C@@H]2O[C@H](COP(=O)(O)OP(=O)(O)OC[C@H]3O[C@@H](n4cnc5c(N)ncnc54)[C@H](O)[C@@H]3O)[C@@H](O)[C@H]2O)C=CC1 [NADH]
- Km (M.tb PGDH (Native) [3]): ~50 µM
- Kd (E. coli PGDH [4]): < 0.5 µM
- NADH concentration needed to produce a rate equal to the kcat (M.tb PGDH): at least 65 mM
- on-rate for NADH binding (M.tb PGDH): occurs within the dead-time of the instrument
- on-rates for NADH binding (M.tb PGDH): zero
- off-rate of NADH binding (M.tb PGDH; pH 7.5): 0.34 sec ^−1 and 0.21 sec ^−1
- Kd (M.tb PGDH; read-out: Kd for NADH binding): 15 to 30 µM

SMILES: O=C(O)C(O)COP(=O)(O)O [phosphoglyceric acid, D-3-phosphoglyceric acid]
- effect on the rate of NADH binding (M.tb PGDH): did not significantly enhance
